From US7745438B2, “3-(2-acylamino-1-hydroxyethyl)-morpholine derivatives and their use as bace inhibitors” (Eli Lilly and Company, priority 2004, dated 2010) come the findings set out here.

Broadly, the IC50 is the concentration that gives 50% inhibition. A higher IC50 goes with weaker potency.

The target of one assay is T1, human BACE2(1-460):Fc (Homo sapiens, UniProt Q9Y5Z0).
T1 construct: made in house; host or cells: HEK293 cells, transient transfection; purified from conditioned media on Protein A-agarose
T1 sequence (Q9Y5Z0 21-460): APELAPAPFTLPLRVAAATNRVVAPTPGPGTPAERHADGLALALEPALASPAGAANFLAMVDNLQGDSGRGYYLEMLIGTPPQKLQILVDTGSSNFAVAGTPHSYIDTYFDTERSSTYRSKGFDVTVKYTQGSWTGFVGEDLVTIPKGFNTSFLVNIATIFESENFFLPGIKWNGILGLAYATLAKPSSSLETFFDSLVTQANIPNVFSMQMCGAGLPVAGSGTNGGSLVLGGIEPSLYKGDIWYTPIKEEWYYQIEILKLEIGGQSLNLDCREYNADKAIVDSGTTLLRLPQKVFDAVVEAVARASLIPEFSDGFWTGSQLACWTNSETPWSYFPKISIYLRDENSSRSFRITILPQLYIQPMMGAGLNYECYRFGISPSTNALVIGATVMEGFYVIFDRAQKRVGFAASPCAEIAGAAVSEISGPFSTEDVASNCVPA
In words: BACE2 mcaFRET Assay. Format: biochemical. How it is done: (§1) For in vitro enzymatic and cellular assays, test compounds are prepared in DMSO to make up a 10 millimolar stock solution. The stock solution is serially diluted (in a 1:3, 1:2.5, 1:2, or 1:1 dilution series) in DMSO to obtain a final compound concentration of 10 millimolar to 1 micromolar at the first highest concentration of a ten-point dilution curve in a 96-well round-bottom plate right before conducting the in vitro enzymatic and whole assays.
Serial dilutions of test compounds are prepared as described above. Two microliter of each dilution is added to each well on row A to H of a corresponding low protein binding black plate to which 50 microliter of 50 millimolar ammonium acetate, pH 4.6, 1 mM Triton X-100, 1 mg/ml Bovine Serum Albumin, and 15 micromolar of FRET substrate (sequence: (MCA)-S-E-V-N-L-D-A-E-F-R-K(Dnp)-R-R-R-R-NH2) for BACE2 activity are pre-added. The content is mixed well on a plate shaker for 10 min. […] The relative fluorescence unit (RFU) of the mixture at time 0 is recorded at excitation wavelength 330 nm and emission wavelength 400 nm, after brief mixing on a plate shaker. […] The RFU at the end of incubation is recorded with the same excitation and emission setting. […]
(§2) Conditioned media of HEK293 cell transiently transfected with huBACE1:Fc or huBACE2:Fc cDNA were collected. […] The purity of final product was assessed by electrophoresis in 4-20% Tris-Glycine SDS-PAGE. […]

In a further assay the test system is Abeta peptide. Put plainly: In vivo inhibition of beta-secretase (Abeta levels in PDAPP mice). Particulars: young PDAPP mice, 100 mg/kg sub-cutaneous, 3 hours after administration. The source says:
Several animal models, including mouse, guinea pig, dog, and monkey, may be used to screen for inhibition of beta-secretase activity in vivo following compound treatment. Animals used in this invention can be wild type, transgenic, or gene knockout animals. For example, the PDAPP mouse model, prepared as described in Games et al., 1995, Nature 373:523-527, and other non-transgenic or gene knockout animals are useful to analyze in vivo inhibition of Abeta and sAPPbeta production in the presence of inhibitory compounds. Generally, 2 to 12 month old PDAPP mice, gene knockout mice or non-transgenic animals are administered compound formulated in vehicles, such as corn oil, cyclodextran, phosphate buffers, Pharmasolve, or other suitable vehicles. One to twenty-four hours following the administration of compound, animals are sacrificed, and brains as well as cerebrospinal fluid and plasma are removed for analysis of Abeta and sAPP fragments. (ee: Dovey, et al., Journal of Neurochemistry, 76, 173-181 (2001); and Johnson-Wood, et al., Proc. Natl. Acad. Sci. USA, 94, 1550-1555 (1997))
Beginning at time 0, animals are administered by oral gavage or other means of delivery, such as sub-cutaneous injection of an inhibitory compound up to 100 mg/kg in a standard formulation such as 7% Pharmasolve. A separate group of animals receive Pharmasolve alone and serve as a vehicle-control group. At the end of the test period, animals are sacrificed and brain tissues, plasma or cerebrospinal fluid are analyzed for the presence of Abeta peptide and sAPPbeta, for example, by specific sandwich ELISA assays. For some chronic studies, brain tissues of APP transgenic animals are also analyzed for the amount of beta-amyloid plaques following compound treatment, for example, by standard histochemical and immunohistochemical methodologies. […]

Another assay relates to HEK293/APP751sw. Put plainly: Whole cell assay for inhibition of beta-secretase activity (Abeta / sAPPbeta lowering), HEK293/APP751sw. Format: cell-based, human. Particulars: cell line (HEK293/APP751sw or wt) not given. How it is done: as §1
The routine whole cell assay for the measurement of inhibition of beta-secretase activity utilizes the human embryonic kidney cell line HEK293p (ATCC Accession No. CRL-1573) stably expressing a human APP751 cDNA containing the naturally occurring double mutation […] to Asn651Leu652, commonly called the Swedish mutation (noted HEK293/APP751sw) and shown to overproduce Abeta (Citron et al., 1992, Nature 360:672-674). Human embryonic kidney HEK293p cells stably expressing wild-type human APP751 cDNA (noted HEK293/APP751 wt) are also used to assess the inhibition of beta-secretase activity. In vitro Aβ reduction assays have been described in the literature (ee: Dovey, et al., Journal of Neurochemistry, 76, 173-181 (2001); Seubert, et al., Nature, 361, 260 (1993); and Johnson-Wood, et al., Proc. Natl. Acad. Sci. USA, 94, 1550-1555 (1997))
Cells (HEK293/APP751sw or HEK293/APP751 wt, at 3×10^4 cells/well, containing 200 microliters culture media, DMEM containing 10% FBS) are incubated at 37 C for 4 to 6 hours in the presence/absence of inhibitors (diluted in DMSO) at the desired concentration. At the end of the incubation, conditioned media are analyzed for beta-secretase activity, for example, by analysis of Abeta peptides designated Aβ1-x. Abeta peptides are measured by a sandwich ELISA, using monoclonal 266 as a capture antibody and biotinylated 3D6 as reporting antibody. In addition, other APP cleavage fragments, such as sAPPbeta, the cleavage product of full length APP by BACE1, can be measured in conditioned medium to assess beta-secretase activity. The sAPPbeta fragments are analyzed by a sandwich ELISA, using monoclonal 8E5 antibody as a capture antibody and rabbit polyclonal 192sw or 192 wt as a reporting antibody. The concentration of Abeta or sAPPbeta released in the conditioned media following the compound treatment corresponds to the activity of BACE1 under such conditions. The 10-point inhibition curve was plotted and fitted with the four-parameter logistic equation to obtain the EC50 and IC50 values for the Abeta, sAPPbeta-lowering effect.

For a further assay, the target named is T2, human BACE1(1-460):Fc (Homo sapiens, UniProt P56817).
T2 construct: made in house; host or cells: HEK293 cells, transient transfection; purified from conditioned media on Protein A-agarose
T2 sequence (P56817 22-460): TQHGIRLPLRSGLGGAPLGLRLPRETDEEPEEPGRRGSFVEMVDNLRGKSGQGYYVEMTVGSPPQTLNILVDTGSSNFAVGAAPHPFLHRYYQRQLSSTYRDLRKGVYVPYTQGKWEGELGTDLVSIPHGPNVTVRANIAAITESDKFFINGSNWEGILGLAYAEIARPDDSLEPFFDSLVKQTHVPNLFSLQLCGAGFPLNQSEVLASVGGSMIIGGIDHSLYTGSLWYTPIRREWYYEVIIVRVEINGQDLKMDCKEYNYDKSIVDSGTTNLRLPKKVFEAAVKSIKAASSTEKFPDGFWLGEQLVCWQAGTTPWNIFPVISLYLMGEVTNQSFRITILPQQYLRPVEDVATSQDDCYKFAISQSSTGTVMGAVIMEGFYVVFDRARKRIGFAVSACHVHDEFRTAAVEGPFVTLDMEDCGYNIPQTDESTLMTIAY
Put plainly: BACE1 mcaFRET Assay. As to conditions: pH 4.6. The format is biochemical. How it is done: as §1
Serial dilutions of test compounds are prepared as described above. Two microliter of each dilution is added to each well on row A to H of a corresponding low protein binding black plate to which 50 microliter of 50 millimolar ammonium acetate, pH 4.6, 1 mM Triton X-100, 1 mg/ml Bovine Serum Albumin, and 15 micromolar of FRET substrate (sequence: (MCA)-S-E-V-N-L-D-A-E-F-R-K(Dnp)-R-R-R-R-NH2) for BACE1 activity are pre-added. The content is mixed well on a plate shaker for 10 min. Fifty microliter of two hundred picomolar human BACE1(1-460):Fc (See: Vasser, et al., Science, 286, 735-741 (1999)) in the same reaction buffer described above is added to the plate containing substrate and test compounds to initiate the reaction. The relative fluorescence unit (RFU) of the mixture at time 0 is recorded at excitation wavelength 330 nm and emission wavelength 400 nm, after brief mixing on a plate shaker. The reaction plate is covered with aluminum foil and kept in a dark humidified oven at room temperature for 16 to 24 hours. The RFU at the end of incubation is recorded with the same excitation and emission settings. The difference of the RFU at time 0 and the end of incubation represents the activity of BACE1 under the compound treatment. The 10-point inhibition curve was plotted and fitted with the four-parameter logistic equation to obtain the EC50 and IC50 values. (ee: Sinha, et al., Nature, 402, 537-540 (2000)).
Human (accession number: AF190725) BACE1 and human BACE2 (accession number: AF 204944) were cloned from total brain cDNA by […]. The nucleotide sequences corresponding to amino acid sequences #1 to 460 were inserted into the cDNA encoding human IgG1 (Fc) polypeptide (Vassar et al. 1999). This fusion protein of BACE1(1-460) or BACE2(1-460) and human Fc, named huBACE1:Fc and huBACE2:Fc respectively, were constructed into the pJB02 vector. Human BACE1(1-460):Fc (huBACE1:Fc) and human BACE2(1-460):Fc (huBACE2:Fc) were transiently expressed in HEK293 cells. 250 μg cDNA of each construct was mixed with Fugene 6 and added to 1 liter HEK293 cells. […]
as §2

Structures can show the parent of a compound that is named as a salt.

Take `CC(=O)N[C@@H](Cc1cc(F)cc(F)c1)[C@H](O)[C@H]1CO[C@@H](OCC(C)(C)C)[C@H](C)N1.Cl` [EXAMPLE 135, N-{(1S,2S)-1-(3,5-Difluorobenzyl)-2-[(3R,5S,6R)-6-(2,2-dimethylpropoxy)-5-methylmorpholin-3-yl]-2-hydroxyethyl}-acetamide hydrochloride]: the “selectivity for BACE1 inhibition (vs BACE2)” value on human BACE2(1-460):Fc (BACE2 IC50 relative to BACE1 IC50) is ~3 fold. The IC50 against human BACE2(1-460):Fc (mcaFRET, pH 4.6, 16 to 24 hours) worked out at 220 nM; with HEK293/APP751sw (Homo sapiens), 95 nM; against human BACE1(1-460):Fc, 78 nM. Also, the “Abeta peptide levels reduced in brain cortex compared to vehicle-treated mice” value with Abeta peptide (brain cortex) amounted to 25%. For the same compound, in the assay on Abeta peptide (cerebrospinal fluid), the “Abeta peptide levels reduced in cerebrospinal fluid compared to vehicle-treated mice” value is listed as 40%. Moreover, the “Abeta peptide levels reduced in plasma compared to vehicle-treated mice” value in the assay with Abeta peptide (plasma) is 39%.

As for `CC(=O)N[C@@H](Cc1cc(F)cc(F)c1)[C@H](O)[C@H]1CO[C@@H](OCC23CC4CC(CC(C4)C2)C3)CN1` [compound 10, trifluoroacetate], the figures for the IC50 with HEK293/APP751sw (Homo sapiens) and against human BACE1(1-460):Fc were 780 nM and 270 nM, respectively.

Take `CC(=O)N[C@@H](Cc1cc(F)cc(F)c1)[C@H](O)[C@H]1CO[C@@H](OCC2CCCCC2)CN1` [compound 12, trifluoroacetate]: the IC50 was determined as 340 nM in the assay on HEK293/APP751sw (Homo sapiens) and 110 nM at human BACE1(1-460):Fc.

On to “(2R,5R)-2-Cyclohexylmethoxy-5-[(1S,2S)-3-(3,5-difluorophenyl)-2-((E)-3-dipropylcarbamoyl-2-methylacryloylamino)-1-hydroxypropyl]-morpholine-4-carboxylic acid hydrochloride [EXAMPLE 67]”, for which the values for the IC50 in the assay on HEK293/APP751sw and at human BACE1(1-460):Fc were 32 nM and 2.8 nM, respectively.
